# Reference: patent US20230257716A1 (priority 2020, published 2023)
# “Also recorded” adds a separate entry of the source.
# Tests used:
# [1] = tested on: human distal lung organoids; experiment: Screening exogenous growth factors in distal lung organoid culture; assay type: cell-based; conditions: single cell suspensions of distal lung, feeder-free; EGF and NOGGIN in combination
# Source text: (§1) Screening exogenous growth factors in organoid culture.
# basal organoids = experiment: Growth factor evaluation for basal organoids after sedimentation and clonogenic culture; assay type: cell-based, human; design: basal organoid growth: dose or concentration left out as unconfirmed
# Source text: as §1
# Density sedimentation of basal cells. Organoid cultures within 2-3 weeks of primary plating were dissociated with 1 U/ml neutral protease (Worthington, Cat LS02100) and 100 KU of DNase I in organoid media. Basal organoids were then collected by gravity sedimentation and the supernatant was either aspirated or collected for downstream use. Basal organoids were then further fractionated on a custom Ficoll-Paque gradient (4 vol Ficoll-Paque to 1 vol PBS) and centrifuged at 300×g for 10 minutes at room temperature. The supernatant was aspirated and the organoid pellet was resuspended in 10 ml PBS in a 15 ml conical tube, collected by gravity sedimentation, and plated into ECM as described above.
# AT2 organoids = experiment: AT2 organoid proliferation with niche factors and PORCUPINE inhibitor
# Experimental: Screening exogenous growth factors in organoid culture. Distal airway cells were isolated and plated as above with the following exceptions: ADMEM/F12 was used instead of organoid medium during elastase digestion of lung tissue, cells were serially diluted and filtered through a 40 micron cell strainer and counted with a hemocytometer. 1000 viable epithelial cells (by Trypan blue exclusion, size, and morphology) per μL ECM were plated per 5 μL Matrigel droplet per well. Base media consisted of organoid media lacking A83-01, EGF, NOGGIN, WNT3A or RSPO1. EGF (final 50 ng/ml, R&D), NOGGIN (final 100 ng/ml, R&D), WNT3A (final 100 ng/ml, R&D), RSPO1 (final 500 ng/ml, Peprotech) or the PORCUPINE inhibitor C59 (final 1μM, Biogems) were added singly or in combination to base media. Images were obtained ten days after primary plating with an inverted light microscope at 5X magnification. Each condition was plated in quadruplicate and organoid formation was quantified using the analyze particle (threshold=4902 pixels) plugin in ImageJ as previously described.
# TNFRSF12A^hi basal cells [2] = conditions: NOTCH inhibition
# Experimental: Quantitation of SCGB1A1 and SFTPC mRNA expression in TNFRSF12A^hi basal cells. FACS-isolated basal cells cultured in the above conditions were fixed in 2% paraformaldehyde in PBS for one hour at room temperature, embedded in HistoGel (Thermo Fisher HG-4000-012), dehydrated and paraffin embedded en bloc. One hundred serial sections were obtained at 10 micron thickness, and immunocytochemistry and in situ hybridization were performed at each 100 micron level. Confocal images were acquired in a blinded manner and organoids were defined as a cluster of 3 or greater DAPI nuclei. Channels were acquired using identical parameters for DAPI, Alexa 488 (SFTPC RNA in situ hybridization), Texas Red (SCGB1A1 RNA in situ hybridization), and Alexa 647 (KRTS immunostaining). Z-stacks were collected and images were processed in ImageJ and maximum intensity Z projections were used to quantitate SCGB1A1 and SFTPC RNA in situ in Cell Profiler using the RNA Proximity Ligase Assay counting pipeline.
# TNFRSF12A^hi basal cells [3] = conditions: basal organoids from FACS-purified TNFRSF12A^hi EPCAM+ITGA6+ITGB4+ cells, 14 days culture
# Experimental: NOTCH manipulation in TNFRSF12A^hi basal cells. TNFRSF12A^hi basal cells were isolated and cultured as above. 24 hours after plating, media was changed to lung organoid media with either vehicle (0.1% DMSO), 1 μg/ml JAG1 peptide (Anaspec), 500 nM soluble recombinant NOTCH receptor inhibitor Delta Like Ligand 4 mutant (DLL4E12), or 1 μM gamma secretase inhibitor DBZ (Tocris). After 14 days of culture, biochemical estimation of proliferation was carried out by resazurin reduction assay (Alamar Blue, Thermo Fisher) for 16 hours according to manufacturer's protocol and resazurin reduction was measured via fluorescence readout on a Biotek Synergy H1 plate reader according to the manufacturer's protocol. Reference blank consisted of Alamar Blue reagent incubated in parallel media without cells.
# [4] = tested on: PR8 strain of H1N1 modified to express GFP; experiment: microbe, parasite or virus in culture; assay type: cell-based, influenza H1N1 (in human distal lung organoids)
molecule,measurement,setting,value
EGF: recombinant human EGF (R&D Systems),distal lung organoid growth with exogenous growth factors,[1],optimal
same,basal organoid growth with exogenous growth factors,"basal organoids; pure basal cell cultures, EGF and Noggin together",sufficient for maximal growth
same,clonal AT2 organoid proliferation with exogenous growth factors,"AT2 organoids; EGF and NOGGIN together, WNT-3A and RSPONDIN-1 added exogenously",sufficient for clonal AT2 organoid proliferation
C[C@H](NC(=O)Cc1cc(F)cc(F)c1)C(=O)N[C@@H]1C(=O)N(C)c2ccccc2-c2ccccc21 [DBZ],SFTPC mRNA expression,TNFRSF12A^hi basal cells [2],upregulating SFTPC mRNA
same,proliferation (resazurin dye reduction),TNFRSF12A^hi basal cells [3],significantly increased proliferation
"Nc1ccn([C@@H]2O[C@H](CO)[C@@H](O)[C@H]2F)c(=O)n1 [FdC, 2′-deoxy-2′-fluorocytidine]",inhibition of H1N1 viral infection or replication (GFP attenuation),[4],efficacious with EC50 consistent with previous reports
same,IC50,"[4]; Influenza A virus, read-out: IC50 on influenza infectivity and replication (dose response curve)",340 nM
"Cc1cc(-c2ccc(CC(=O)Nc3ccc(-c4cccnc4)cc3)cc2)ccn1 [C59, reference compound]",basal organoid growth,"basal organoids; after d14 sedimentation, clonogenic culture, C59",growth was not significantly inhibited; also recorded: Growth was not affected
same,AT2 organoid growth,AT2 organoids; PORCUPINE inhibitor C59 (1 μM),attenuated AT2 organoid growth
CC(=O)N[C@H]1[C@H]([C@H](O)[C@H](O)CO)OC(C(=O)O)=C[C@@H]1N=C(N)N [zanamivir],IC50 on influenza infectivity and replication (dose response curve),[4],did not exhibit a dose response curve
same,inhibition of H1N1 viral infection or replication (GFP attenuation),[4],did not inhibit H1N1 viral infection or replication
